# Assays:
# 5-HT2CR = target: T1, 5-HT2CR (Homo sapiens, UniProt P28335); test: IP1 functional assay (5-HT2CR); assay type: cell-based; settings: 5-HT2C, IP1, agonist mode
# T1 construct: Epics Therapeutics S.A
# C57BL/6J mice [1] = test: Amphetamine-induced locomotion; assay type: in vivo; settings: (+)-JRT 1 mg/kg + AMPH 3 mg/kg
# Description: Figure S11. […] (A) Pretreatment with (+)-JRT (1 mg/kg,
# IP) can block AMPH-induced hyperlocomotion in female, but not male, mice. (B) Pretreatment with (+)-JRT (1 mg/kg, IP) […]
# AMPH = (+)-amphetamine; PCP = phencyclidine; VEH = vehicle; ns = not significant. *p < 0.05, **p < 0.01, ***p < 0.001, ****p < 0.0001, as compared to the comparator(s) indicated by a horizontal bar. See Methods and SI Appendix, Table S1 for full details on statistics.
# (1 picture or pasted object on this page, not shown here)
# (§1) Amphetamine-Induced Locomotion. The amphetamine-induced hyperlocomotion assay was performed using male and female C57BL/6J mice that were approximately 8 weeks old at the time of the experiments. Animals were first placed in the test arena (40 cm x 40 cm) for 15 min to obtain a basal reading of locomotion and habituate them to the testing arena.
# Next, animals were administered (+)-JRT (1 mg/kg) or VEH (2.5 mL/kg, i.p) and placed back in the test arena. After 15 min, the animals were administered (+)-amphetamine (3 mg/kg) or VEH (2.5 mL/kg) and placed back in the test arena for 60 minutes. Locomotion during the entire experiment was quantified using ANYmaze Video Tracking System, version 7.07 (Stoelting Co.). The test arena was cleaned thoroughly with 70% ethanol between trials. […]
# Reads were aligned to the GRCm39 genome assembly using STAR, processed with Picard, and counted with the Subread software. Transcript inclusion criteria consisted of a minimum raw expression level of 25 transcripts in a minimum of 4 samples. Surrogate variable analysis was conducted with the sva package 2023 release v3.5.0 in R and normalization and differential expression analysis was performed with DESeq2 v4.3 with a baseMean threshold of 10. Heatmaps were created with the pheatmap v1.0.12 with sample-wise z-scores plotted and both row and column grouping allowed using pearson's distances and ward.D for clustering. Gene-wise selection criteria for heatmaps were a baseMean expression threshold of 50 to focus on robustly expressed genes, p value < 0.05, and presence in the top 250 genes sorted by absolute value of log2FC. Additionally, z score was capped at 2 for visualization purposes. Schizophrenia gene sets were extracted from a recent TWAS study (30).
# For Figure S8G, the TWAS set was filtered for FDR < 0.01. Permutation testing was conducted to quantify the overlap of top genes from schizophrenia TWAS with the perm_test function from the bulkWarehouse package 2023 release v1.2.7.
# Briefly, the intersection of top differentially expressed genes and top TWAS genes is compared to an empirical distribution created by calculating the intersection with our top DEGs when randomly sampling candidate genes from our dataset equal to the size of the TWAS sample. […]
# C57BL/6J mice [2] = test: Prepulse inhibition (PPI); assay type: in vivo
# Description: as §1
# Next, animals were administered (+)-JRT (1 mg/kg) or VEH (2.5 mL/kg, i.p) and placed back in the test arena. After 15 min, the animals were administered (+)-amphetamine (3 mg/kg) or VEH (2.5 mL/kg) and placed back in the test arena for 60 minutes. Locomotion during the entire experiment was quantified using ANYmaze Video Tracking System, version 7.07 (Stoelting Co.). The test arena was cleaned thoroughly with 70% ethanol between trials.
# PCP-Induced Locomotion. The PCP-induced hyperlocomotion assay was performed by Psychogenics using male C57BL/6J mice that were approximately 8 weeks old at the time of the experiments. The experiment was performed during the animal’s light cycle phase. […] Baseline activity was recorded for 30 min. […] Locomotion was assessed using consecutive infrared beam breaks. […]
# Next, startle response was measured in response to five 40 ms sound bursts of 80, 90, 100, 110, or 120 dB (random order, fixed intertrial interval). […] Percent PPI was calculated according to the formula: 100 – [(pre-pulse + pulse)/pulse alone) × 100. […]
# T1 sequence (P28335 33-458): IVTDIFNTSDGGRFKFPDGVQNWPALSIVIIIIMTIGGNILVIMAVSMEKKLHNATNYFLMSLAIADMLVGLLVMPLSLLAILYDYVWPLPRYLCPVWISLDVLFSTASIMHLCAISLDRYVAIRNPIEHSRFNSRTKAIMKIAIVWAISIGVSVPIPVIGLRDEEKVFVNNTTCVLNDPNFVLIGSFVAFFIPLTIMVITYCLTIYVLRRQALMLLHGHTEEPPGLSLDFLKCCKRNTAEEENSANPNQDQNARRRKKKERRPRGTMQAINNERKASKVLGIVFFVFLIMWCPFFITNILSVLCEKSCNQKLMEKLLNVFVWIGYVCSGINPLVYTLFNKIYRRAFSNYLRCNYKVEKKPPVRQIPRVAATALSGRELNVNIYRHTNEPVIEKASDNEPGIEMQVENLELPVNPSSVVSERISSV
smiles,measurement,setting,value
CCN(CC)C(=O)[C@@H]1C=C2c3cccc4ccn(c34)C[C@H]2N(C)C1 [(+)-JRT],Emax,5-HT2CR,89%
same,Locomotion (Figure 11A Females),"C57BL/6J mice [1]; female mice, VEH + VEH 101.9 ± 15.04",217.2 ± 47.70
same,Locomotion (Figure 11A Males),"C57BL/6J mice [1]; male mice, VEH + VEH 59.80 ± 4.206",361.2 ± 35.54
same,Deficits in prepulse inhibition induced by the compound itself,C57BL/6J mice [2]; 1 mg/kg IP,did not induce any deficits in PPI
same,Effect of pretreatment on MK-801-induced deficits in prepulse inhibition,"C57BL/6J mice [2]; 1 mg/kg IP pretreatment, MK-801",did not exacerbate

# — publication PMC12037037 (Proceedings of the National Academy of Sciences of the …, 2025)
